Reference: patent US11583543B2, “Ambroxol to improve and/or extend healthspan, lifespan and/or mental acuity” (NeueRe, LLC, priority 2017, dated 2023)

Columns and labels:
male BDF1 mice = assay: Lifespan study with ambroxol as chow supplement; assay type: in vivo, mouse
Method: Group 1 represents control animals that were not administered ambroxol; Group 2 represents animals administered 50 mg/kg (body weight) of ambroxol daily as a chow supplement, starting at 2 months of age
Weaned male BDF1 mice were raised from pups, housed 1-4 animals per cage and fed Teklad 7013 NIH-31 rodent chow and water ad libitum. At 2 months of age, the mice were divided into two roughly equal groups of 22-25 animals. One group continued to be fed the Teklad chow as before (control); the other group was switched to Teklad chow formulated with ambroxol at 300 mg per kg of chow. This formulation was designed, based on the average ad libitum chow consumption of an adult male BDF1 mouse, to deliver 50 mg/kg/day (based on body mass) to each mouse in the treated group. Mice were maintained on this diet until they died naturally or until they reached 16 months of age, at which time the experiment ended. During the course of the experiment all mice were periodically removed from their cages and handled in the course of subjecting them to various sensorimotor, cognitive, and/or behavioral tests.
Group 1 represents control animals that were not administered ambroxol; Group 2 represents animals administered 50 mg/kg of ambroxol daily as a chow supplement, starting at 2 months of age.

mice = assay: Novel place recognition cognitive acuity test; assay type: in vivo, mouse; settings: tested at 7 months, FIG. 2
Method: FIG. 2. Mice were tested at age 7 months for novel place recognition. This is a cognitive test to measure short term working memory, involving recognition of a familiar object found in an unfamiliar place (see Magen et al (2012) Eur. J. Neurosci. 35: 870-882; Magen and Chesselet (2011) J. Parkinson's Disease 1: 217-227). A Discrimination Index (DI)=(tnovel−tfamiliar)/(tnovel+tfamiliar) is used to assess the time spent exploring near the object in a novel place (“tnovel”) vs. the total exploration time overall. Discrimination Index scores greater than zero are considered to indicate good place recognition memory. In this experiment, three groups of mice, with at least 13 mice in each group, were given a cognitive acuity test at 7 months.

NIH3T3 cells = assay: Basal macroautophagy, mCherry-GFP-LC3 tandem reporter, high content microscopy; assay type: cell-based, mouse; settings: 24 h in complete media; autophagic vacuoles, autophagosomes, autolysosomes; FIG. 3
Method: FIG. 3. Effect of Ambroxol on basal macroautophagy in mouse cells. Mouse fibroblasts in culture (NIH3T3 cells) expressing the tandem reporter mCherry-GFP-LC3 were exposed to the indicated concentrations of Ambroxol for 24 h in complete media. Panel A. Schematic of the autophagic compartments analyzed. Panels B-D. Number of autophagic vacuoles (AV) (Panel B); autophagosomes (APG) (Panel C); and autolysosomes (AUT) (Panel D). All values are mean+s.e.m. and quantifications were done in at least 2,500 cells per condition in three different experiments using high content microscopy. Differences with untreated (0 uM ambroxol) are significant for *p<0.05 **p<0.01 and ***p<0.001.
Mouse fibroblasts (NIH3T3) were obtained from the American Type Culture Collection (ATCC). […] The number of particles/puncta per cell was quantified using the ‘particle identifier’ function in the cytosolic region after thresholding in non-saturated images. In all cases, focal plane thickness was set at 0.17 μm and sections with maximal nucleus diameter were selected for quantification. […] Macroautophagy activity in intact cells was measured upon transduction with lentivirus carrying the mCherry-GFP-LC3 tandem construct. […] Cells were plated on glass-bottom 96 well plates and fluorescence was read in both channels. […] Autophagic flux was determined as the conversion of autophagosomes (yellow) to autolysosomes (red only puncta).

For `Nc1c(Br)cc(Br)cc1CN[C@H]1CC[C@H](O)CC1` [Ambroxol, trans-4-(2-amino-3,5-dibromobenzylamino) cyclohexanol], which lifespan (male BDF1 mice; 50 mg/kg daily as chow supplement from 2 months of age, until 16 months, vs control (Group 1), FIG. 1) is on record?
The lifespan was “increase lifespan”.

What about the “healthspan (health of surviving animals when sacrificed)” value (male BDF1 mice; Group 2, 50 mg/kg daily, vs Group 1 control, preliminary data) of the same molecule?
Its value is “at least as healthy”.

And the cognitive acuity (mice; High Dose group 150 mg/kg/day)?
The cognitive acuity was “best cognitive acuity results”.

What about the cognitive acuity (mice; Low Dose group 50 mg/kg/day) of the same molecule?
Its cognitive acuity is “results in between the Control Group and the “High Dose” Group”.

And the macroautophagy (NIH3T3 cells)?
Its macroautophagy is “Induces Macroautophagy”.
